Measured values published in patent publication US20030069189A1, “Treatment of infarcts” (Millennium Pharmaceuticals, Inc., priority 1997, published 2003).

System: middle cerebral artery (MCA) occlusion
Details: rat, 2 h MCA occlusion, 24 h reperfusion, 0.03 mg/kg iv bolus at 30 minutes
Experimental: Six male Sprague Dawley rats (300 g) were anesthetized with haloethane and subjected to middle cerebral artery (MCA) occlusion using a nylon filament for 2 h. Subsequently, the filament was removed and reperfusion of the infarcted tissue occurred for 24 hours before the rat was sacrificed.
Staining of coronal sections (2.0 mm×7-8) with triphenyltetrazolium chloride ([…]) taken throughout the brain were evaluated under blinded conditions using image analysis to determine infarct size.
The infarct was also expressed as a percentage of the contralateral (non-infarcted) hemisphere to provide an indication of how much of the ipsilateral (infarcted) hemisphere was actually damaged by the procedure. Because edema is present in the infarcted hemisphere, it is often impossible to directly ascertain the percentage of the ipsilateral hemisphere that has been damaged.
Rats were given iv bolus injections (1.0 mL/kg) of either vehicle (10% PEG 200/saline; n=3) or N-(2-pyrazine)carbonyl-L-phenylalanine-L-leucine boronic acid (0.03 mg/kg; n=3) at 30 minutes, 2 hours, and 6 hours after the start of the occlusion.

CC(C)CC(NC(=O)C(Cc1ccccc1)NC(=O)c1cnccn1)B(O)O [N-(2-pyrazine)carbonyl-L-phenylalanine-L-leucine boronic acid]
Infarct volume decreased on the ipsilateral hemisphere (2 hours and 6 hours after start of occlusion, vs vehicle): 62%
Total damage of the hemisphere (infarct as percentage of contralateral hemisphere) (2 hours and 6 hours, vehicle 19%): 2%
